In paper PMC6009985, “Structure–activity relationship investigation of benzamide and picolinamide derivatives containing dimethylamine side chain as acetylcholinesterase inhibitors” (Journal of Enzyme Inhibition and Medicinal Chemistry, 2017):

What was measured:
[1] = Octanol/buffer partition coefficient by shake flask method; type: physicochemical; conditions: octanol/buffer (PBS) pH 7.4, shake-flask, 37 °C, HPLC; for logP: octanol/phosphate buffer solution (PBS)
Procedure: The aqueous phase was replaced by phosphate buffer solution (PBS, pH = 7.4). The assay mixture containing tested compounds was shaken at 37 °C over night and then centrifuged at 2000 rpm for 20 min, followed by the analysis with HPLC. […] Experiments were conducted in triplicate and log p values were calculated.

AChE [2] = biological target: T1, AChE (Homo sapiens, UniProt P22303); assay: biochemical; conditions: for IC50: Ellman method, 30 °C, 25 min, pH 8.0, mean ± SD; for Selectivity for AChE, IC50 (BChE)/IC50 (AChE): ratio IC50 (BChE)/IC50 (AChE)
Procedure: (§1) AChE/BChE activity assays were carried out by Ellman method with slight modification. Each compound was dissolved in Tween 80 and diluted with water to various concentrations immediately before use. The assay solution which contained 40 μL AChE/BChE, 100 μL acetylthiocholine iodide/S-butyrylthiocholine iodide, 2.76 ml Na2HPO4/NaH2PO4 buffer (pH 8.0, 0.1 M), and 100 μL tested compound solution with different concentrations were incubated at 30 °C for 25 min. Then, the reaction was terminated with 100 μL 20% sodium dodecylsulphate (SDS), then 100 μL 10 mM […] (DTNB) as chromogenic agent was added into the mixture. […] The IC50 values were calculated by Bliss method and expressed as Mean ± SD of the replicates.

BChE = BChE (Homo sapiens, UniProt P06276); assay: biochemical; conditions: Ellman method, 30 °C, 25 min, pH 8.0; mean ± SD
Procedure: as §1

AChE [3] = biological target: T1, AChE; assay: Kinetic study of AChE inhibition (Lineweaver-Burk); type: biochemical
Procedure: Kinetic characterisation of AChE/BChE was performed by a modified method previous reported. Compound 7a was pre-incubated with the enzyme at 30 °C, then 100 µL acetylthiocholine iodide including five concentrations was added into the assay mixture and kinetic characterisation was conducted spectrometrically at 412 nm. Additionally, the parallel control experiment was made without compound 7a in the mixture.
Compound 7a was selected for kinetic studies. The linear Lineweaver–Burk equation of the Michaelis–Menten was applied to evaluate the inhibition profile. The analysis of the steady-state inhibition data of compound 7a was shown in Supplement data: Table 2.

T1 sequence (P22303 32-614): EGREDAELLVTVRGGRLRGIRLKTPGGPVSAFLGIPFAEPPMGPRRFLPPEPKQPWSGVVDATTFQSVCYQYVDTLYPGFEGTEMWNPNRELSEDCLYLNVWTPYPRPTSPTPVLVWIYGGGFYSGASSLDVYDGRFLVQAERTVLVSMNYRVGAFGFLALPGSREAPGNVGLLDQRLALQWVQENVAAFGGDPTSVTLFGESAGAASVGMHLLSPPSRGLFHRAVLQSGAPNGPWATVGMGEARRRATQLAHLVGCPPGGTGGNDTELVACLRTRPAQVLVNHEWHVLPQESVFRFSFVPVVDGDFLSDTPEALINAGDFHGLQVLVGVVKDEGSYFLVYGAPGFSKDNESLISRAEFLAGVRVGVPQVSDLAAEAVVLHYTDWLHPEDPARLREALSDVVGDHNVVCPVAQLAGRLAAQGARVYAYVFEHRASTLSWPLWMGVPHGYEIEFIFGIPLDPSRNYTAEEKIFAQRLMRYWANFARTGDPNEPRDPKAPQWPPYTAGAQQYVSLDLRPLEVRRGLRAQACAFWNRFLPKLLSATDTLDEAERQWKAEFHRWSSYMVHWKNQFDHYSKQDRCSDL
BChE, sequence (P06276 29-602): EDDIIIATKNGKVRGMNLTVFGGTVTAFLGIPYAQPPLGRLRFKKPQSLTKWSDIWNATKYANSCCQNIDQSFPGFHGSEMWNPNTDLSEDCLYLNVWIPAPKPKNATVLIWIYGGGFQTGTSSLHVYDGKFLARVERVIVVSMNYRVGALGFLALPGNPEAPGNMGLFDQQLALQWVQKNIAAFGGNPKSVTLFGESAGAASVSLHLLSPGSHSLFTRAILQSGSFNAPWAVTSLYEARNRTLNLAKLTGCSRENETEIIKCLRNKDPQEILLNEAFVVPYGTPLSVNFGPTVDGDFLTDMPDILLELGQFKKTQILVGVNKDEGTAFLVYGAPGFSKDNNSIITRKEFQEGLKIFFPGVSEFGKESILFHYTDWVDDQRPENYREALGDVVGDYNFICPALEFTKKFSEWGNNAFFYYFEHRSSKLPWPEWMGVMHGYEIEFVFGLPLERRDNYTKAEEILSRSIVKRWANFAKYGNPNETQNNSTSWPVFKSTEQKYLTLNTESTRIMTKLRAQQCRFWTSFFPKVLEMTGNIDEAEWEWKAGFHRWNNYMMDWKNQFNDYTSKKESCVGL

SMILES	logP [1]	IC50 (AChE [2]) [µM]	Selectivity for AChE, IC50 (BChE)/IC50 (AChE) (AChE [2])	IC50 (BChE) [µM]	Vmax (AChE [3]; AChE, 0.85 µM compound 7a)	Vmax (AChE [3]; AChE, 1.70 µM compound 7a)	Vmax (AChE [3]; AChE, 3.41 µM compound 7a)	non-competitive constant (Ki') (AChE [3]; AChE, Lineweaver-Burk analysis) [µM]	Ki (AChE [3]; AChE, Lineweaver-Burk analysis, read-out: competitive inhibition constant (Ki)) [µM]	type of inhibition against AChE (AChE [3]; Lineweaver-Burk analysis)	Log p [1]
CN(C)CCOc1cccc(NC(=O)c2ccncc2)c1 [Compound 7b]	1.31	38.4 ± 2.19	1.26	48.6 ± 2.23							
CN(C)CCOc1ccc(NC(=O)c2cccnc2)cc1 [Compound 7d]	1.33	5.76 ± 0.41	42.80	246.5 ± 1.85							
CN(C)CCOc1cccc(NC(=O)c2ccccn2)c1 [Compound 7h]	1.37	73 ± 3.03	0.492	35.9 ± 0.94							
CN(C)CCOc1ccc(NC(=O)c2ccccn2)cc1 [Compound 7g]	1.14	4.68 ± 0.3	24.4	114 ± 7.73							
CN(C)CCOc1ccccc1NC(=O)c1ccccc1 [Compound 4c]	1.23	> 500	<0.0359	18 ± 1							
CN(C)CCOc1cccc(NC(=O)c2ccccc2)c1 [Compound 4b]	1.18	75.8 ± 4.13	0.276	20.9 ± 1.61							
CN(C)CCOc1ccc(NC(=O)c2ccncc2)cc1 [Compound 7a]	1.26	2.49 ± 0.19	99.4	247 ± 7.54	0.017 ΔAmin-1	0.014 ΔAmin-1	0.012 ΔAmin-1	3.28	4.69	mixed-type inhibition	
CN(C)CCOc1ccccc1NC(=O)c1ccncc1 [Compound 7c]	1.37	> 500	<0.0892	44.6 ± 1.16							
CN(C)CCOc1ccccc1NC(=O)c1cccnc1 [Compound 7f]	1.42	75.8 ± 0.84	0.441	33.4 ± 1.37							
CN(C)CCOc1cccc(NC(=O)c2cccnc2)c1 [Compound 7e]	1.37	13.2 ± 1.73	1.67	22.1 ± 1.01							
CN(C)CCOc1ccc(NC(=O)c2ccccc2)cc1 [Compound 4a]		18.2 ± 1.16	7.84	143 ± 5.56							1.12
CN(C)CCOc1ccccc1NC(=O)c1ccccn1 [Compound 7i]	1.18	> 500	<0.0549	27.4 ± 2.31							
